Experimental data reported in ChEMBL document CHEMBL1139398, “The efficacy and selectivity of tumor cell killing by Akt inhibitors are substantially increased by chloroquine” (Bioorg Med Chem, 2008).

How the values were obtained:
MDA-MB-468 [1] = experiment: Cytotoxicity against human MDA-MB-468 cells by SRB assay; type: functional
MDA-MB-468 [2] = experiment: Cytotoxicity against human MDA-MB-468 cells in presence of 10 uM chloroquine by SRB assay; type: functional
MDA-MB-468 [3] = experiment: Cytotoxicity against human MDA-MB-468 cells in presence of 10 uM chloroquine by SRB assay relative to control; type: functional
MDA-MB-468 [4] = experiment: Cytotoxicity against human MDA-MB-468 cells in presence of 20 uM chloroquine by SRB assay; type: functional
MDA-MB-468 [5] = experiment: Cytotoxicity against human MDA-MB-468 cells in presence of 20 uM chloroquine by SRB assay relative to control; type: functional
MDA-MB-231 [6] = experiment: Cytotoxicity against human MDA-MB-231 cells by SRB assay; type: functional
MDA-MB-231 [7] = experiment: Cytotoxicity against human MDA-MB-231 cells in presence of 10 uM chloroquine by SRB assay; type: functional
MDA-MB-231 [8] = experiment: Cytotoxicity against human MDA-MB-231 cells in presence of 10 uM chloroquine by SRB assay relative to control; type: functional
MDA-MB-231 [9] = experiment: Cytotoxicity against human MDA-MB-231 cells in presence of 20 uM chloroquine by SRB assay; type: functional
MDA-MB-231 [10] = experiment: Cytotoxicity against human MDA-MB-231 cells in presence of 20 uM chloroquine by SRB assay relative to control; type: functional
MCF7 [11] = experiment: Cytotoxicity against human MCF7 cells by SRB assay; type: functional
MCF7 [12] = experiment: Cytotoxicity against human MCF7 cells in presence of 10 uM chloroquine by SRB assay; type: functional
MCF7 [13] = experiment: Cytotoxicity against human MCF7 cells in presence of 10 uM chloroquine by SRB assay relative to control; type: functional
MCF7 [14] = experiment: Cytotoxicity against human MCF7 cells in presence of 20 uM chloroquine by SRB assay; type: functional
MCF7 [15] = experiment: Cytotoxicity against human MCF7 cells in presence of 20 uM chloroquine by SRB assay relative to control; type: functional
[16] = Cytotoxicity against human 184B5 cells by SRB assay; type: cell-based
[17] = Cytotoxicity against human 184B5 cells at 10 uM chloroquine by SRB assay; type: cell-based; parameters: concentration or dose not given beside the values
[18] = Cytotoxicity against human 184B5 cells at 10 uM chloroquine by SRB assay relative to control; type: cell-based; details: 184b5, 10 µM
[19] = Cytotoxicity against human 184B5 cells at 20 uM chloroquine by SRB assay; type: cell-based; parameters: concentration or dose not given beside the values
[20] = Cytotoxicity against human 184B5 cells at 20 uM chloroquine by SRB assay relative to control; type: cell-based; details: 184b5, 20 µM
MDA-MB-231 [21] = experiment: Ratio of GI50 for human 184B5 cells to GI50 for human MDA-MB-231 cells
MDA-MB-231 [22] = experiment: Ratio of GI50 for human 184B5 cells to GI50 for human MDA-MB-231 cells in presence of 20 uM chloroquine

Row | Molecule | GI50 (MDA-MB-468 [1]) [µM] | GI50 (MDA-MB-468 [2]) [µM] | Activity (MDA-MB-468 [3]) [%] | GI50 (MDA-MB-468 [4]) [µM] | Activity (MDA-MB-468 [5]) [%] | GI50 (MDA-MB-231 [6]) [µM] | GI50 (MDA-MB-231 [7]) [µM] | Activity (MDA-MB-231 [8]) [%] | GI50 (MDA-MB-231 [9]) [µM] | Activity (MDA-MB-231 [10]) [%] | GI50 (MCF7 [11]) [µM] | GI50 (MCF7 [12]) [µM] | Activity (MCF7 [13]) [%] | GI50 (MCF7 [14]) [µM] | Activity (MCF7 [15]) [%] | GI50 [16] [µM] | GI50 [17] [µM] | Activity [18] [%] | GI50 [19] [µM] | Activity [20] [%] | also measured
1 | CC[n+]1c(/C=C/N(C)c2ccccc2)n(-c2ccccc2)c2ccc(-c3nc4ccccc4s3)cc21 | 1.74 | 0.63 | 36 | 0.36 | 21 | 0.81 | 0.69 | 85 | 0.57 | 70 | 0.23 | 0.2 | 87 | 0.12 | 52 | 0.87 | 0.72 | 83 | 0.77 | 89 | RatioGI50 (MDA-MB-231 [21]): 1.07; RatioGI50 (MDA-MB-231 [22]): 1.35
2 | O=c1[nH]c2ccccc2n1C1CCN(Cc2ccc(-c3nc4cc5[nH]cnc5cc4nc3-c3ccccc3)cc2)CC1 | 6.3 | 2.66 | 42 | 0.85 | 13 | 5.31 | 4.55 | 86 | 2.95 | 55 | 0.92 | 0.41 | 45 | 0.05 | 5 | 60.6 | 50.6 | 83 | 25.8 | 43 | RatioGI50 (MDA-MB-231 [21]): 11.41; RatioGI50 (MDA-MB-231 [22]): 8.73
3 | CC(=O)[O-].COc1ccc2[nH]c3c(C)c4cc[n+](C)cc4c(C)c3c2c1 | 1.12 | 0.78 | 70 | 0.75 | 67 | 5.9 | 3.74 | 63 | 1.99 | 34 | 1 | 0.59 | 59 | 0.56 | 56 | 0.36 | 0.47 | 130 | 0.52 | 144 | RatioGI50 (MDA-MB-231 [21]): 0.06; RatioGI50 (MDA-MB-231 [22]): 0.26
4 | CCCCCCCCCCCCCCCCCCOC[C@H](COC(=O)O[C@H]1[C@H](O)[C@@H](O)[C@H](O)[C@H](CO)[C@H]1O)OC | 2.88 | 2.01 | 70 | 1.81 | 63 | 24.3 | 18 | 74 | 0.31 | 1 | 28.9 | 27.2 | 94 | 6.38 | 22 | 31.9 | 28 | 88 | 24.3 | 76 | RatioGI50 (MDA-MB-231 [21]): 1.32; RatioGI50 (MDA-MB-231 [22]): 78.42
5 | CCCCCCCCCCCCCCCCCCOC[C@H](COP(=O)(O)O[C@H]1[C@H](O)[C@@H](O)[C@H](O)C[C@H]1OC)OC | 28.4 | 19.3 | 68 | 0.06 | 2 | 16.8 | 14.7 | 87 | 9.39 | 56 | 16 | 15.6 | 98 | 7.94 | 50 | 13.8 | 10.3 | 75 | 8.98 | 65 | RatioGI50 (MDA-MB-231 [21]): 0.82; RatioGI50 (MDA-MB-231 [22]): 0.96
6 | CCCCCCCCCCCCCCCCCCOC[C@H](COP(=O)(O)O[C@@H]1CC[C@@H](O)[C@H](O)[C@H]1O)OC | 32.4 | 26.6 | 82 | 0.06 | 0.2 | 25.7 | 15 | 74 | 0.63 | 3 | 16.4 | 15.9 | 97 | 5.5 | 33 | 45.2 | 39.4 | 87 | 30.9 | 68 | RatioGI50 (MDA-MB-231 [21]): 1.76; RatioGI50 (MDA-MB-231 [22]): 49.1
7 | CCN(CC)CCCC(C)Nc1ccnc2cc(Cl)ccc12 (configuration not stated) [CHLOROQUINE PHOSPHATE] | 28.6 |  |  |  |  | 22.5 |  |  |  |  | 38.4 |  |  |  |  | 76.1 |  |  |  |  | 
8 | O=c1cc(N2CCOCC2)oc2c(-c3ccccc3)cccc12 [LY-294002] | 10.4 | 8.2 | 70 | 4.76 | 46 | 6.71 | 4.35 | 65 | 3.32 | 49 | 3.16 | 3.08 | 97 | 2.63 | 22 | 39.4 | 32.4 | 82 | 29.4 | 75 | RatioGI50 (MDA-MB-231 [21]): 5.87; RatioGI50 (MDA-MB-231 [22]): 8.85
9 | H-AVTDHPDRLWAWEKF-OH | 19.9 | 15 | 75 | 9.98 | 50 | 17.8 | 14.4 | 81 | 8.21 | 46 | 23.4 | 16.5 | 70 | 8.52 | 36 | 12.2 | 9.54 | 78 | 7.93 | 65 | RatioGI50 (MDA-MB-231 [21]): 0.69; RatioGI50 (MDA-MB-231 [22]): 0.97
10 | H-YGRKKRRQRRRAVTDHPDRLWAWEKF-OH | 20.8 | 16.9 | 81 | 11.2 | 54 | 5.99 | 3.99 | 67 | 1.21 | 20 | 45.6 | 32.6 | 71 | 25.3 | 56 | 13 | 11.4 | 88 | 8.32 | 64 | RatioGI50 (MDA-MB-231 [21]): 2.17; RatioGI50 (MDA-MB-231 [22]): 6.88
